The source of these data is US8247423B2, “Methods and compositions for the treatment of cancer, tumors, and tumor-related disorders” (Tragara Pharmaceuticals, Inc., priority 2007, dated 2012).

This data set can be described thus: clinical. Conditions: human, in vivo, po.

Structures are written as SMILES.

Description: Methods: Subjects with recurrent or metastatic NSCLC were treated with erlotinib (150 mg/day PO) and escalating doses of 2-(4-ethoxyphenyl)-4-methyl-1-(4-sulfamoylphenyl)-pyrrole (100-1200 mg/day PO). Pharmacokinetics for 2-(4-ethoxyphenyl)-4-methyl-1-(4-sulfamoylphenyl)-pyrrole and erlotinib were evaluated.

In the case of `CCOc1ccc(-c2cc(C)cn2-c2ccc(S(N)(=O)=O)cc2)cc1`, the Tmax (usually the time from dosing to the highest level) worked out at 2 h and the half-life (usually how long it takes for the measured level to halve) was 11.8 h.
